According to ChEMBL document CHEMBL1255267, “Reduced Susceptibility of Proteus mirabilis to triclosan” (2008):
≈ marks a conversion by molar mass, not a printed value.

How the values were obtained:
Format in all cases: functional
[1] = system: Proteus mirabilis; assay: Antibacterial activity against Proteus mirabilis M 29 mutant after 18 hrs by Etest method
[2] = system: Proteus mirabilis; assay: Antibacterial activity against Proteus mirabilis M 44 mutant after 18 hrs by Etest method
[3] = system: Proteus mirabilis; assay: Antibacterial activity against Proteus mirabilis M 55 mutant after 18 hrs by Etest method
[4] = system: Proteus mirabilis; assay: Antibacterial activity against Proteus mirabilis NP55 after 18 hrs by Etest method
[5] = system: Proteus mirabilis; assay: Antibacterial activity against Proteus mirabilis M 23 mutant after 18 hrs by Etest method
[6] = system: Proteus mirabilis; assay: Antibacterial activity against Proteus mirabilis M 12 mutant after 18 hrs by Etest method
[7] = system: Proteus mirabilis; assay: Antibacterial activity against Proteus mirabilis M 26 mutant after 18 hrs by Etest method
[8] = system: Proteus mirabilis; assay: Antibacterial activity against Proteus mirabilis M 31 mutant after 18 hrs by Etest method
[9] = system: Proteus mirabilis; assay: Antibacterial activity against Proteus mirabilis NP43 after 18 hrs by Etest method
[10] = system: Proteus mirabilis; assay: Antibacterial activity against Proteus mirabilis M 17 mutant after 18 hrs by Etest method
[11] = system: Escherichia coli; assay: Antibacterial activity against Escherichia coli 10418 after 18 hrs by Etest method
[12] = system: Proteus mirabilis; assay: Antibacterial activity against Proteus mirabilis B2 after 18 hrs by Etest method
[13] = system: Proteus mirabilis; assay: Antibacterial activity against Proteus mirabilis NP14 after 18 hrs by Etest method
[14] = system: Proteus mirabilis; assay: Antibacterial activity against Proteus mirabilis NP37 after 18 hrs by Etest method
[15] = system: Proteus mirabilis; assay: Antibacterial activity against Proteus mirabilis M 42 mutant after 18 hrs by Etest method
[16] = system: Proteus mirabilis; assay: Antibacterial activity against Proteus mirabilis M 48 mutant after 18 hrs by Etest method
[17] = system: Proteus mirabilis; assay: Antibacterial activity against Proteus mirabilis M 40 mutant after 18 hrs by Etest method
[18] = system: Proteus mirabilis; assay: Antibacterial activity against Proteus mirabilis M 21 mutant after 18 hrs by Etest method
[19] = system: Proteus mirabilis; assay: Antibacterial activity against Proteus mirabilis M 19 mutant after 18 hrs by Etest method
[20] = system: Proteus mirabilis; assay: Antibacterial activity against Proteus mirabilis M 35 mutant after 18 hrs by Etest method
[21] = system: Proteus mirabilis; assay: Effect on catheter blockage in Bladder model inoculated with wild-type Proteus mirabilis B2
[22] = system: Proteus mirabilis; assay: Effect on catheter blockage in Bladder model inoculated with Proteus mirabilis M 55 mutant
[23] = system: Proteus mirabilis; assay: Effect on pH of residual urine at time of catheter blockage in Bladder model inoculated with wild-type Proteus mirabilis B2
[24] = system: Proteus mirabilis; assay: Effect on viable cells in urine at time of catheter blockage in Bladder model inoculated with Proteus mirabilis M 55 mutant
[25] = system: Proteus mirabilis; assay: Effect on viable cells in urine at time of catheter blockage in Bladder model inoculated with Proteus mirabilis M 48 mutant
[26] = system: Proteus mirabilis; assay: Effect on pH of residual urine at time of catheter blockage in Bladder model inoculated with Proteus mirabilis M 55 mutant
[27] = system: Proteus mirabilis; assay: Effect on catheter blockage in Bladder model inoculated with Proteus mirabilis M 48 mutant
[28] = system: Proteus mirabilis; assay: Effect on pH of residual urine at time of catheter blockage in Bladder model inoculated with Proteus mirabilis M 48 mutant
[29] = system: Proteus mirabilis; assay: Effect on viable cells in urine at time of catheter blockage in Bladder model inoculated with wild-type Proteus mirabilis B2

| Molecule | MIC ([1]; M 29, 18 h) [µg/mL] | MIC ([2]; M 44, 18 h) [µg/mL] | MIC ([3]; M 55, 18 h) [µg/mL] | MIC ([4]; NP55, 18 h) [µg/mL] | MIC ([5]; M 23, 18 h) [µg/mL] | MIC ([6]; M 12, 18 h) [µg/mL] | MIC ([7]; M 26, 18 h) [µg/mL] | MIC ([8]; M 31, 18 h) [µg/mL] | MIC ([9]; NP43, 18 h) [µg/mL] | MIC ([10]; M 17, 18 h) [µg/mL] | MIC ([11]; Escherichia coli, 10418, 18 h) [µg/mL] | MIC ([12]; B2, 18 h) [µg/mL] | MIC ([13]; NP14, 18 h) [µg/mL] | MIC ([14]; NP37, 18 h) [µg/mL] | MIC ([15]; M 42, 18 h) [µg/mL] | MIC ([16]; M 48, 18 h) [µg/mL] | MIC ([17]; M 40, 18 h) [µg/mL] | MIC ([18]; M 21, 18 h) [µg/mL] | MIC ([19]; M 19, 18 h) [µg/mL] | MIC ([20]; M 35, 18 h) [µg/mL] | also measured |
| --- | --- | --- | --- | --- | --- | --- | --- | --- | --- | --- | --- | --- | --- | --- | --- | --- | --- | --- | --- | --- | --- |
| O=C1CN(/N=C/c2ccc([N+](=O)[O-])o2)C(=O)N1 [NITROFURANTOIN] | 16 (≈ 67.2 µM) | 32 (≈ 134 µM) | 48 (≈ 202 µM) | 64 (≈ 269 µM) | 32 (≈ 134 µM) | 12 (≈ 50.4 µM) | 24 (≈ 101 µM) | 24 (≈ 101 µM) | 48 (≈ 202 µM) | 12 (≈ 50.4 µM) | 2 (≈ 8.4 µM) | 64 (≈ 269 µM) | 32 (≈ 134 µM) | 24 (≈ 101 µM) | 48 (≈ 202 µM) | 24 (≈ 101 µM) | 64 (≈ 269 µM) | 48 (≈ 202 µM) | 32 (≈ 134 µM) | 32 (≈ 134 µM) |  |
| CCn1cc(C(=O)O)c(=O)c2cc(F)c(N3CCNCC3)cc21 [NORFLOXACIN] | 0.03 (≈ 0.0939 µM) | 0.05 (≈ 0.157 µM) | 0.05 (≈ 0.157 µM) | 0.05 (≈ 0.157 µM) | 0.19 (≈ 0.595 µM) | 0.02 (≈ 0.0626 µM) | 0.03 (≈ 0.0939 µM) | 0.02 (≈ 0.0626 µM) | 0.05 (≈ 0.157 µM) | 0.02 (≈ 0.0626 µM) | 0.02 (≈ 0.0626 µM) | 0.05 (≈ 0.157 µM) | 0.25 (≈ 0.783 µM) | 0.05 (≈ 0.157 µM) | 0.03 (≈ 0.0939 µM) | 0.05 (≈ 0.157 µM) | 0.03 (≈ 0.0939 µM) | 0.19 (≈ 0.595 µM) | 0.19 (≈ 0.595 µM) | 0.03 (≈ 0.0939 µM) |  |
| Oc1cc(Cl)ccc1Oc1ccc(Cl)cc1Cl [TRICLOSAN] | 10 (≈ 34.5 µM) | 40 (≈ 138 µM) | 40 (≈ 138 µM) | 0.2 (≈ 0.691 µM) | 5 (≈ 17.3 µM) | 40 (≈ 138 µM) | 20 (≈ 69.1 µM) | 5 (≈ 17.3 µM) | 0.2 (≈ 0.691 µM) | 40 (≈ 138 µM) | 0.2 (≈ 0.691 µM) | 0.2 (≈ 0.691 µM) | 0.2 (≈ 0.691 µM) | 0.1 (≈ 0.345 µM) | 0.8 (≈ 2.76 µM) | 2 (≈ 6.91 µM) | 40 (≈ 138 µM) | 5 (≈ 17.3 µM) | 40 (≈ 138 µM) | 40 (≈ 138 µM) | Time [21]: >48 h; Time [22]: 44 h; pH [23]: 6.28; CFU/ml [24]: 4.2 ×10⁷ /ml; CFU/ml [25]: 5.44 ×10⁴ /ml; pH [26]: 8.84; Time [27]: >48 h; pH [28]: 6.51; CFU/ml [29]: 2.07 ×10³ /ml |
| COc1cc(Cc2cnc(N)nc2N)cc(OC)c1OC [TRIMETHOPRIM] | > 32 | > 32 | > 32 | > 32 | > 32 | 0.19 (≈ 0.654 µM) | > 32 | > 32 | 0.4 (≈ 1.38 µM) | 0.25 (≈ 0.861 µM) | 0.03 (≈ 0.103 µM) | > 32 | > 32 | > 32 | > 32 | > 32 | > 32 | > 32 | > 32 | > 32 |  |
| GENTAMICIN |  |  |  |  |  |  |  |  |  |  |  |  |  |  |  |  |  |  |  |  | MIC [1]: 0.19 µg/mL; MIC [2]: 0.38 µg/mL; MIC [3]: 0.38 µg/mL; MIC [4]: 0.1 µg/mL; MIC [5]: 0.09 µg/mL; MIC [6]: 0.06 µg/mL; MIC [7]: 0.13 µg/mL; MIC [8]: 0.13 µg/mL; MIC [9]: 0.1 µg/mL; MIC [10]: 0.06 µg/mL; MIC [11]: 0.09 µg/mL; MIC [12]: 0.38 µg/mL; MIC [13]: 0.13 µg/mL; MIC [14]: 0.38 µg/mL; MIC [15]: 0.25 µg/mL; MIC [16]: 0.25 µg/mL; MIC [17]: 0.13 µg/mL; MIC [18]: 0.13 µg/mL; MIC [19]: 0.13 µg/mL; MIC [20]: 0.25 µg/mL |
